# Experimental data taken from US11331369B2, “Endoparasitic depsipeptides” (Zoetis Services LLC, priority 2017, dated 2022).
# Counter-ions that a name gives are not always drawn.
# Tested on: microfilariae of Dirofilaria immitis
# Test: Dirofilaria immitis, Microfilaria (DiMF) In vitro Assay
# Type: cell-based
# Conditions: 72 h, read-out: DiMF Minimum Effective Dose (MED), approximately 72 hours incubation, microfilariae assessed for survival or paralysis
row,Structure (SMILES),minimal effective concentration [µM]
1,"CC(C)C[C@H]1C(=O)O[C@H](Cc2ccc(Cn3nc(CO)cc3C3CC3)cc2)C(=O)N(C)[C@@H](CC(C)C)C(=O)O[C@H](C)C(=O)N(C)[C@@H](CC(C)C)C(=O)O[C@H](Cc2ccc(Cn3nc(C#N)cc3C#N)cc2)C(=O)N(C)[C@@H](CC(C)C)C(=O)O[C@H](C)C(=O)N1C [Example 1a-10, 1-(4-(((2R,5S,8R,11S,14R,17S,20R,23S)-14-(4-((5-cyclopropyl-3-(hydroxymethyl)-1H-pyrazol-1-yl)methyl)benzyl)-5,11,17,23-tetraisobutyl-4,8,10,16,20,22-hexamethyl-3,6,9,12,15,18,21,24-octaoxo-1,7,13,19-tetraoxa-4,10,16,22-tetraazacyclotetracosan-2-yl)methyl)benzyl)-1H-pyrazole-3,5-dicarbonitrile]",0.001 to 0.01
2,"CC(C)C[C@H]1C(=O)O[C@H](Cc2ccc(Cn3nc(C4CC4)cc3C3CC3)cc2)C(=O)N(C)[C@@H](CC(C)C)C(=O)O[C@H](C)C(=O)N(C)[C@@H](CC(C)C)C(=O)O[C@H](Cc2ccc(Cn3nc(CO)cc3C3CC3)cc2)C(=O)N(C)[C@@H](CC(C)C)C(=O)O[C@H](C)C(=O)N1C [Example 1a-14, (3S,6R,9S,12R,15S,18R,21S,24R)-6-(4-((5-cyclopropyl-3-(hydroxymethyl)-1H-pyrazol-1-yl)methyl)benzyl)-18-(4-((3,5-dicyclopropyl-1H-pyrazol-1-yl)methyl)benzyl)-3,9,15,21-tetraisobutyl-4,10,12,16,22,24-hexamethyl-1,7,13,19-tetraoxa-4,10,16,22-tetraazacyclotetracosan-2,5,8,11,14,17,20,23-octaone]",0.01 to 0.1

# Tested on: third stage larvae of Haemonchus contortus
# Test: Haemonchus contortus L3 (HcL3) Assay
# Type: cell-based
# Conditions: 96 h, read-out: HcL3 Minimum Effective Dose (MED)
row,Structure (SMILES),minimal effective concentration [µM]
1,"CC(C)C[C@H]1C(=O)O[C@H](Cc2ccc(Cn3nc(CO)cc3C3CC3)cc2)C(=O)N(C)[C@@H](CC(C)C)C(=O)O[C@H](C)C(=O)N(C)[C@@H](CC(C)C)C(=O)O[C@H](Cc2ccc(Cn3nc(C#N)cc3C#N)cc2)C(=O)N(C)[C@@H](CC(C)C)C(=O)O[C@H](C)C(=O)N1C [Example 1a-10, 1-(4-(((2R,5S,8R,11S,14R,17S,20R,23S)-14-(4-((5-cyclopropyl-3-(hydroxymethyl)-1H-pyrazol-1-yl)methyl)benzyl)-5,11,17,23-tetraisobutyl-4,8,10,16,20,22-hexamethyl-3,6,9,12,15,18,21,24-octaoxo-1,7,13,19-tetraoxa-4,10,16,22-tetraazacyclotetracosan-2-yl)methyl)benzyl)-1H-pyrazole-3,5-dicarbonitrile]",1 to 10
2,"CC(C)C[C@H]1C(=O)O[C@H](Cc2ccc(Cn3nc(C4CC4)cc3C3CC3)cc2)C(=O)N(C)[C@@H](CC(C)C)C(=O)O[C@H](C)C(=O)N(C)[C@@H](CC(C)C)C(=O)O[C@H](Cc2ccc(Cn3nc(CO)cc3C3CC3)cc2)C(=O)N(C)[C@@H](CC(C)C)C(=O)O[C@H](C)C(=O)N1C [Example 1a-14, (3S,6R,9S,12R,15S,18R,21S,24R)-6-(4-((5-cyclopropyl-3-(hydroxymethyl)-1H-pyrazol-1-yl)methyl)benzyl)-18-(4-((3,5-dicyclopropyl-1H-pyrazol-1-yl)methyl)benzyl)-3,9,15,21-tetraisobutyl-4,10,12,16,22,24-hexamethyl-1,7,13,19-tetraoxa-4,10,16,22-tetraazacyclotetracosan-2,5,8,11,14,17,20,23-octaone]",1 to 10
3,"CC(C)C[C@H]1C(=O)O[C@H](Cc2ccc(C(C)(C)n3cc([N+](=O)[O-])cn3)cc2)C(=O)N(C)[C@@H](CC(C)C)C(=O)O[C@H](C)C(=O)N(C)[C@@H](CC(C)C)C(=O)O[C@H](Cc2ccc(C(C)(C)n3cc([N+](=O)[O-])cn3)cc2)C(=O)N(C)[C@@H](CC(C)C)C(=O)O[C@H](C)C(=O)N1C [Example 1c-7, (3S,6R,9S,12R,15S,18R,21S,24R)-3,9,15,21-tetraisobutyl-4,6,10,16,18,22-hexamethyl-12,24-bis(4-(2-(4-nitro-1H-pyrazol-1-yl)propan-2-yl)benzyl)-1,7,13,19-tetraoxa-4,10,16,22-tetraazacyclotetracosan-2,5,8,11,14,17,20,23-octaone]",≤ 1
4,"Cc1cnn(C(C)(C)c2ccc(C[C@H]3OC(=O)[C@H](CC(C)C)N(C)C(=O)[C@@H](C)OC(=O)[C@H](CC(C)C)N(C)C(=O)[C@@H](Cc4ccc(C(C)(C)n5cc(C)cn5)cc4)OC(=O)[C@H](CC(C)C)N(C)C(=O)[C@@H](C)OC(=O)[C@H](CC(C)C)N(C)C3=O)cc2)c1 [Example 1c-9, (3S,6R,9S,12R,15S,18R,21S,24R)-3,9,15,21-tetraisobutyl-4,6,10,16,18,22-hexamethyl-12,24-bis(4-(2-(4-methyl-1H-pyrazol-1-yl)propan-2-yl)benzyl)-1,7,13,19-tetraoxa-4,10,16,22-tetraazacyclotetracosan-2,5,8,11,14,17,20,23-octaone]",≤ 1
5,"CC(C)C[C@H]1C(=O)O[C@H](Cc2ccc(C(C)(C)n3cc(Br)cn3)cc2)C(=O)N(C)[C@@H](CC(C)C)C(=O)O[C@H](C)C(=O)N(C)[C@@H](CC(C)C)C(=O)O[C@H](Cc2ccc(C(C)(C)n3cc(Br)cn3)cc2)C(=O)N(C)[C@@H](CC(C)C)C(=O)O[C@H](C)C(=O)N1C [Example 1c-11, (3S,6R,9S,12R,15S,18R,21S,24R)-6,18-bis(4-(2-(4-bromo-1H-pyrazol-1-yl)propan-2-yl)benzyl)-3,9,15,21-tetraisobutyl-4,10,12,16,22,24-hexamethyl-1,7,13,19-tetraoxa-4,10,16,22-tetraazacyclotetracosan-2,5,8,11,14,17,20,23-octaone]",≤ 1
6,"CC(C)C[C@H]1C(=O)O[C@H](Cc2ccc(Cn3cc(O)cn3)cc2)C(=O)N(C)[C@@H](CC(C)C)C(=O)O[C@H](C)C(=O)N(C)[C@@H](CC(C)C)C(=O)O[C@H](Cc2ccccc2)C(=O)N(C)[C@@H](CC(C)C)C(=O)O[C@H](C)C(=O)N1C [Example 2-30, (3S,6R,9S,12R,15S,18R,21S,24R)-6-benzyl-18-(4-((4-hydroxy-1H-pyrazol-1-yl)methyl)benzyl)-3,9,15,21-tetraisobutyl-4,10,12,16,22,24-hexamethyl-1,7,13,19-tetraoxa-4,10,16,22-tetraazacyclotetracosan-2,5,8,11,14,17,20,23-octaone]",1 to 10
7,"CC(C)C[C@H]1C(=O)O[C@H](Cc2ccc(Cn3cc(C(N)=O)cn3)cc2)C(=O)N(C)[C@@H](CC(C)C)C(=O)O[C@H](C)C(=O)N(C)[C@@H](CC(C)C)C(=O)O[C@H](Cc2ccccc2)C(=O)N(C)[C@@H](CC(C)C)C(=O)O[C@H](C)C(=O)N1C [Example 2-53, 1-(4-(((2R,5S,8R,11S,14R,17S,20R,23S)-14-benzyl-5,11,17,23-tetraisobutyl-4,8,10,16,20,22-hexamethyl-3,6,9,12,15,18,21,24-octaoxo-1,7,13,19-tetraoxa-4,10,16,22-tetraazacyclotetracosan-2-yl)methyl)benzyl)-1H-pyrazole-4-carboxamide]",1 to 10
8,"CC(C)C[C@H]1C(=O)O[C@H](Cc2cccc(Cn3cccn3)c2)C(=O)N(C)[C@@H](CC(C)C)C(=O)O[C@H](C)C(=O)N(C)[C@@H](CC(C)C)C(=O)O[C@H](Cc2ccc(Cn3cccn3)cc2)C(=O)N(C)[C@@H](CC(C)C)C(=O)O[C@H](C)C(=O)N1C [Example 3-1, (3S,6R,9S,12R,15S,18R,21S,24R)-3,9,15,21-tetraisobutyl-4,6,10,16,18,22-hexamethyl-12-[[3-(pyrazol-1-ylmethyl)phenyl]methyl]-24-[[4-(pyrazol-1-ylmethyl)phenyl]methyl]-1,7,13,19-tetraoxa-4,10,16, 22-tetrazacyclotetracosane-2,5,8,11,14,17,20,23-octaone]",1 to 10
9,"Cc1cnn(Cc2ccc(C[C@H]3OC(=O)[C@H](CC(C)C)N(C)C(=O)[C@@H](C)OC(=O)[C@H](CC(C)C)N(C)C(=O)[C@@H](Cc4cccc(Cn5cc(C)cn5)c4)OC(=O)[C@H](CC(C)C)N(C)C(=O)[C@@H](C)OC(=O)[C@H](CC(C)C)N(C)C3=O)cc2)c1 [Example 3-2, (3S,6R,9S,12R,15S,18R,21S,24R)-3,9,15,21-tetraisobutyl-4,6,10,16,18,22-hexamethyl-12-[[3-[(4-methylpyrazol-1-yl)methyl]phenyl]methyl]-24-[[4-[(4-methylpyrazol-1-yl)methyl]phenyl]methyl]-1,7,13,19-tetraoxa-4,10,16,22-tetrazacyclotetracosane-2,5,8,11,14,17,20,23-octaone]",1 to 10
10,"CC(C)C[C@H]1C(=O)O[C@H](Cc2cccc(Cn3cc(Br)cn3)c2)C(=O)N(C)[C@@H](CC(C)C)C(=O)O[C@H](C)C(=O)N(C)[C@@H](CC(C)C)C(=O)O[C@H](Cc2ccc(Cn3cc(Br)cn3)cc2)C(=O)N(C)[C@@H](CC(C)C)C(=O)O[C@H](C)C(=O)N1C [Example 3-3, (3S,6R,9S,12R,15S,18R,21S,24R)-6-[[3-[(4-bromopyrazol-1-yl)methyl]phenyl]methyl]-18-[[4-[(4-bromopyrazol-1-yl)methyl]phenyl]methyl]-3,9,15,21-tetraisobutyl-4,10,12,16,22,24-hexamethyl-1,7,13,19-tetraoxa-4,10,16,22-tetrazacyclotetracosane-2,5,8,11,14,17,20,23-octaone]",1 to 10
11,"COc1cnn(Cc2ccc(C[C@H]3OC(=O)[C@H](CC(C)C)N(C)C(=O)[C@@H](C)OC(=O)[C@H](CC(C)C)N(C)C(=O)[C@@H](Cc4cccc(Cn5cc(OC)cn5)c4)OC(=O)[C@H](CC(C)C)N(C)C(=O)[C@@H](C)OC(=O)[C@H](CC(C)C)N(C)C3=O)cc2)c1 [Example 3-27, (3S,6R,9S,12R,15S,18R,21S,24R)-3,9,15,21-tetraisobutyl-6-(3-((4-methoxy-1H-pyrazol-1-yl)methyl)benzyl)-18-(4-((4-methoxy-1H-pyrazol-1-yl)methyl)benzyl)-4,10,12,16,22,24-hexamethyl-1,7,13,19-tetraoxa-4,10,16,22-tetraazacyclotetracosan-2,5,8,11,14,17,20,23-octaone]",1 to 10
12,"CC(C)C[C@H]1C(=O)O[C@H](Cc2ccc(CN3CCOCC3)cc2)C(=O)N(C)[C@@H](CC(C)C)C(=O)O[C@H](C)C(=O)N(C)[C@@H](CC(C)C)C(=O)O[C@H](Cc2ccc(CN3CCOCC3)cc2)C(=O)N(C)[C@@H](CC(C)C)C(=O)O[C@H](C)C(=O)N1C [Example 9-1, (3S,6R,9S,12R,15S,18R,21S,24R)-3,9,15,21-tetraisobutyl-4,6,10,16,18,22-hexamethyl-12,24-bis(4-(morpholinomethyl)benzyl)-1,7,13,19-tetraoxa-4,10,16,22-tetraazacyclotetracosan-2,5,8,11,14,17,20,23-octaone]",1 to 10
13,"CC(C)C[C@H]1C(=O)O[C@H](Cc2ccc(CN3CCNc4ccccc43)cc2)C(=O)N(C)[C@@H](CC(C)C)C(=O)O[C@H](C)C(=O)N(C)[C@@H](CC(C)C)C(=O)O[C@H](Cc2ccc(CN3CCNc4ccccc43)cc2)C(=O)N(C)[C@@H](CC(C)C)C(=O)O[C@H](C)C(=O)N1C [Example 9-69, (3S,6R,9S,12R,15S,18R,21S,24R)-6,18-bis[[4-(3,4-dihydro-2H-quinoxalin-1-ylmethyl)phenyl]methyl]-3,9,15,21-tetraisobutyl-4,10,12,16,22,24-hexamethyl-1,7,13,19-tetraoxa-4,10,16,22-tetrazacyclotetracosane-2,5,8,11,14,17,20,23-octaone dihydrochloride]",10 to 100
14,"CC(C)C[C@H]1C(=O)O[C@H](Cc2ccc(CN3CCOCC3)cc2)C(=O)N(C)[C@@H](CC(C)C)C(=O)O[C@H](C)C(=O)N(C)[C@@H](CC(C)C)C(=O)O[C@H](Cc2ccccc2)C(=O)N(C)[C@@H](CC(C)C)C(=O)O[C@H](C)C(=O)N1C [Example 10-6, (3S,6R,9S,12R,15S,18R,21S,24R)-6-benzyl-3,9,15,21-tetraisobutyl-4,10,12,16,22,24-hexamethyl-18-(4-(morpholinomethyl)benzyl)-1,7,13,19-tetraoxa-4,10,16,22-tetraazacyclotetracosan-2,5,8,11,14,17,20,23-octaone]",1 to 10
